≈ marks a conversion by molar mass, not a printed value. Marks after values point to notes of the source that are not given here. Where a SMILES comes first, the peptide text is derived from it. [ ]: non-standard residue; d: D form. hArg = N=C(N)NCCCC[C@H](N)C(=O)O; Dab = NCC[C@H](N)C(=O)O; Dap = NC[C@H](N)C(=O)O
How the values were obtained:
[1] = test system: E. coli ATCC 25922; format: cell-based, Escherichia coli; conditions: ATCC 25922, 20 h
Summary of the method: (§1)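 Inocula were set to 0.5 McFarland and diluted to ~5 × 10^5 CFU/mL (bacteria, MH broth) or 0.5 × 10^3 to 2.5 × 10^3 CFU/mL (yeast, RPMI 1640). Peptide twofold dilutions were added, plates incubated 20 h at 37°C or 48 h at 35°C, then scored by eye.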

[2] = test system: P. aeruginosa ATCC 27853; format: cell-based, Pseudomonas aeruginosa; conditions: ATCC 27853, 20 h
Summary of the method: as §1

[3] = test system: carbapenem-resistant P. aeruginosa (CRPA) SIPI-012; format: cell-based, Pseudomonas aeruginosa; conditions: carbapenem-resistant (CRPA) SIPI-012, 20 h
Summary of the method: as §1

[4] = test system: A. baumannii ATCC 19606; format: cell-based, Acinetobacter baumannii; conditions: ATCC 19606, 20 h
Summary of the method: as §1

[5] = test system: carbapenem-resistant A. baumannii (CRAB) SIPI-025; format: cell-based, Acinetobacter baumannii; conditions: carbapenem-resistant (CRAB) SIPI-025, 20 h
Summary of the method: as §1

[6] = test system: S. aureus ATCC 25923; experiment: microbe, parasite or virus in culture; format: cell-based, Staphylococcus aureus; conditions: ATCC 25923, 20 h
Summary of the method: as §1

[7] = test system: C. albicans ATCC 10231; experiment: microbe, parasite or virus in culture; format: cell-based, Candida albicans; conditions: ATCC 10231, 48 h
Summary of the method: as §1

[8] = test system: proteases secreted by A. baumannii ATCC 19606; experiment: in vitro; conditions: A. baumannii ATCC 19606 culture supernatant, pH 8
Summary of the method: (§2)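 Cell-free culture supernatants (overnight, 37°C; MH broth for bacteria, 2% tryptone/2% dextrose for yeast) were centrifuged, adjusted to pH 8.0 and 0.22 μm filtered. Peptides at 0.5 mg/mL were incubated in supernatant 24 h at 37°C; remaining intact peptide measured by RP-HPLC, with peptide-free supernatant as negative control.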

[9] = test system: proteases secreted by S. aureus ATCC 25923; experiment: in vitro; conditions: S. aureus ATCC 25923 culture supernatant, pH 8
Summary of the method: as §2

[10] = test system: human erythrocytes; experiment: Hemolytic activity assay; format: cell-based; conditions: human RBC in PB, 37°C, 1 h, OD420, total lysis control 0.1% SDS, three technical replicates
Summary of the method: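 Washed RBCs from a healthy volunteer were incubated with peptides at 32–128 μM for 1 h at 37°C in PB. Hemoglobin release into the supernatant was read as OD420 against total lysis with 0.1% SDS, in three technical replicates.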

[11] = test system: RAW 264.7 cells; experiment: Cell viability assay (MTT); format: cell-based, mouse; conditions: 1–128 μM peptide in DMEM with 4% FBS, 42 h, 595 nm, triplicate
Summary of the method: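 RAW 264.7 cells (1 × 10^4/well, DMEM + 10% FBS) grown overnight to 80% confluency, then exposed to peptides at 1–128 μM in DMEM with 4% FBS for 42 h at 37 °C. MTT read at 595 nm; viability relative to medium-only controls, triplicate, IC50 as 50% loss of viability.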

[12] = test system: human plasma proteases; experiment: in vitro
Experimental: The peptides were mixed with plasma from healthy volunteers to a final concentration of 0.1 mg/mL and incubated at 37°C. Aliquots (20 or 40 μL) were removed after 0, 2, 4, 6, 8, 12, 24, and 36 h, mixed with 0.05% TFA to a final concentration of 0.01 mg/mL, and incubated on ice for 10 min. After centrifugation (12,000 × g, 5 min), the supernatant was stored at −20°C. The samples were analyzed as described in section “Hydrophobicity” and quantified as described in section “Stability Toward Tryptic Degradation.” All stability tests were performed at least in triplicate. The identities of the metabolites after 12 h of degradation by plasma proteases were determined by LC-MS on a Waters Acquity UPLC-QDa system.

[13] = test system: proteases secreted by C. albicans ATCC 10231; experiment: in vitro; conditions: C. albicans ATCC 10231 culture supernatant, pH 8
Summary of the method: as §2

[14] = test system: proteases secreted by P. aeruginosa ATCC 27853; experiment: in vitro; conditions: P. aeruginosa ATCC 27853 culture supernatant, pH 8
Summary of the method: as §2

SMILES | MIC [1] [µg/mL] | MIC [2] [µg/mL] | MIC [3] [µg/mL] | MIC [4] [µg/mL] | MIC [5] [µg/mL] | MIC [6] [µg/mL] | MIC [7] [µg/mL] | remaining at 24 h, 0.5 mg/mL ([8]; Acinetobacter baumannii) [%] | remaining at 24 h, 0.5 mg/mL ([9]; Staphylococcus aureus) [%] | Hemolysis rate (%) ([10]; 64 μM) | Hemolysis rate (%) ([10]; 128 μM) | IC50 [11] [µM] | metabolised at 2 h, 0.1 mg/mL [12] [%] | metabolised at 4 h, 0.1 mg/mL [12] [%] | remaining at 24 h, 0.5 mg/mL [13] [%] | remaining at 24 h, 0.5 mg/mL [14] [%] | remaining at 24 h, 0.5 mg/mL [9] [%] | remaining at 24 h, 0.5 mg/mL [8] [%]
CC(C)C[C@H](NC(=O)[C@H](Cc1ccc(O)cc1)NC(=O)[C@H](CCCCN)NC(=O)[C@H](CC(C)C)NC(=O)[C@H](CC(C)C)NC(=O)[C@@H](CCCCN)NC(=O)[C@@H](CCCCN)NC(=O)[C@H](Cc1ccccc1)NC(=O)[C@H](CC(C)C)NC(=O)[C@@H](CCCNC(=N)N)NC(=O)[C@H](N)CCCCN)C(=O)N[C@@H](CCCNC(=N)N)C(=O)N[C@H](CCCCN)C(=O)N[C@@H](Cc1ccccc1)C(N)=O [DP05] (H-[dK][dR]LF[dK][dK]LLKYLR[dK]F-NH2) | 2 (≈ 1.06 µM) | 1 (≈ 0.532 µM) | 8 (≈ 4.25 µM) | 1 (≈ 0.532 µM) | 2 (≈ 1.06 µM) | 1 (≈ 0.532 µM) | 2 (≈ 1.06 µM) | 31.7 ± 9 | 66.7 ± 5.9 | 30.09 ± 1.56 | 45.07 ± 2.93% | 32.7 ± 3.44 | > 40 | > 50 | – | – | – | –
CC(C)C[C@H](NC(=O)[C@H](Cc1ccc(O)cc1)NC(=O)[C@H](CCN)NC(=O)[C@H](CC(C)C)NC(=O)[C@H](CC(C)C)NC(=O)[C@H](CCN)NC(=O)[C@H](CCN)NC(=O)[C@H](Cc1ccccc1)NC(=O)[C@H](CC(C)C)NC(=O)[C@H](CCCCNC(=N)N)NC(=O)[C@@H](N)CCN)C(=O)N[C@@H](CCCNC(=N)N)C(=O)N[C@@H](CCN)C(=O)N[C@@H](Cc1ccccc1)C(N)=O [UP12] (H-[Dab][hArg]LF[Dab][Dab]LL[Dab]YLR[Dab]F-NH2) | 2 (≈ 1.14 µM) | 2 (≈ 1.14 µM) | 4 (≈ 2.28 µM) | 2 (≈ 1.14 µM) | 4 (≈ 2.28 µM) | 1 (≈ 0.57 µM) | 4 (≈ 2.28 µM) | – | – | 45.13 ± 1.95 | ∼100.00* % | 21.2 ± 2.42 | – | – | 37.7 ± 5.24 | 20.6 ± 4.3 | 69.5 ± 5.97 | –
CC(C)C[C@H](NC(=O)[C@H](Cc1ccc(O)cc1)NC(=O)[C@H](CCN)NC(=O)[C@H](CC(C)C)NC(=O)[C@H](CC(C)C)NC(=O)[C@H](CN)NC(=O)[C@H](CN)NC(=O)[C@H](Cc1ccccc1)NC(=O)[C@H](CC(C)C)NC(=O)[C@H](CCCCNC(=N)N)NC(=O)[C@@H](N)CN)C(=O)N[C@@H](CCCCNC(=N)N)C(=O)N[C@@H](CCN)C(=O)N[C@@H](Cc1ccccc1)C(N)=O [UP14] (H-[Dap][hArg]LF[Dap][Dap]LL[Dab]YL[hArg][Dab]F-NH2) | 2 (≈ 1.16 µM) | 2 (≈ 1.16 µM) | 8 (≈ 4.63 µM) | 4 (≈ 2.32 µM) | 4 (≈ 2.32 µM) | 0.5 (≈ 0.29 µM) | 4 (≈ 2.32 µM) | – | – | 66.51 ± 3.14 | 74.68 ± 1.34 % | 14 ± 2.67 | – | – | – | 27.6 ± 6.76 | 57.3 ± 6.54 | 12.9 ± 1.48
